In ChEMBL document CHEMBL3259552, “Tetra-substituted imidazoles as a new class of inhibitors of the p53-MDM2 interaction” (Bioorg Med Chem Lett, 2014):

Assays:
[1] = biological target: E3 ubiquitin-protein ligase Mdm2 (Homo sapiens, UniProt Q00987); experiment: Inhibition of MDM2 (unknown origin) (2 to 188) assessed as inhibition of p53-MDM2 interaction by TR-FRET assay
[2] = system: SJSA-1; experiment: Antiproliferative activity against human SJSA1 cells expressing wild-type p53 after 72 hrs by fluorescence plate reader analysis; format: functional, cell-based; details: SJSA-1, 72 h
[3] = Antiproliferative activity against p53-deficient human Saos2 cells after 72 hrs by fluorescence plate reader analysis; format: functional, cell-based; details: SAOS-2, 72 h

Chain of E3 ubiquitin-protein ligase Mdm2 (Q00987 whole entry): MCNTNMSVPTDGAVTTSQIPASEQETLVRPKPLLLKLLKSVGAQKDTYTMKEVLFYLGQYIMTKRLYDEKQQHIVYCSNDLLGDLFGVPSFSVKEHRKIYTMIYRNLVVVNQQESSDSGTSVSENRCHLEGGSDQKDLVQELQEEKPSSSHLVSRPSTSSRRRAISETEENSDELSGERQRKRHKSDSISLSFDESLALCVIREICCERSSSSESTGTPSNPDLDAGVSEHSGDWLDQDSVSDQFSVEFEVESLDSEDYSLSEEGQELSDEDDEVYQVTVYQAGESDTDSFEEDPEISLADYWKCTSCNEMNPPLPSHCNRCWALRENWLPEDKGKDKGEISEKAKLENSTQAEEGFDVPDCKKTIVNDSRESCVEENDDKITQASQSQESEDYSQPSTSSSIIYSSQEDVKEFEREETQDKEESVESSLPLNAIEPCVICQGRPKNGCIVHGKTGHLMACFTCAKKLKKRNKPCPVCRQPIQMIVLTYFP

Compound	IC50 [1]	IC50 [2]	IC50 [3]
O=C(O)c1nc(-c2ccccc2)n(-c2cccc(Cl)c2)c1-c1cccc(Cl)c1	0.12 µM	–	–
Cc1ccc(Cl)cc1-n1c(-c2ccccc2)nc(C(=O)O)c1-c1cccc(Cl)c1	–	16.1 µM	> 30 µM
O=C(O)c1nc(-c2ccccc2)n(-c2cccc(Cl)c2F)c1-c1cccc(Cl)c1	–	12.2 µM	> 30 µM
Cc1cccc(-c2nc(C(=O)O)c(-c3cccc(Cl)c3)n2-c2cc(Cl)ccc2C)c1	–	10.2 µM	> 30 µM
O=C(O)c1nc(-c2ccccc2)n(-c2cccc(Cl)c2F)c1-c1ccc(F)c(Cl)c1	–	14 µM	> 30 µM
O=C(O)c1nc(C2CCCCC2)n(-c2cccc(Cl)c2F)c1-c1ccc(F)c(Cl)c1	–	13.2 µM	> 30 µM
NC(=O)c1nc(C2CCCCC2)n(-c2cccc(Cl)c2F)c1-c1ccc(F)c(Cl)c1	–	4.1 µM	29 µM
Fc1ccc(-c2c(-c3nnn[nH]3)nc(C3CCCCC3)n2-c2cccc(Cl)c2F)cc1Cl	–	4.4 µM	> 30 µM
Cc1nnc(-c2nc(C3CCCCC3)n(-c3cccc(Cl)c3F)c2-c2ccc(F)c(Cl)c2)o1	–	5.9 µM	> 30 µM
Nc1nnc(-c2nc(C3CCCCC3)n(-c3cccc(Cl)c3F)c2-c2ccc(F)c(Cl)c2)o1	–	3.5 µM	> 30 µM
CNC(=O)Cc1ccc(Cl)c(F)c1-n1c(C2CCCCC2)nc(-c2nnc(N)o2)c1-c1ccc(F)c(Cl)c1	–	1.4 µM	24 µM
Nc1nnc(-c2nc(C3CCCCC3)n(-c3c(CC(=O)Nc4ccccc4)ccc(Cl)c3F)c2-c2ccc(F)c(Cl)c2)o1	–	2.5 µM	30 µM
Nc1nnc(-c2nc(C3CCCCC3)n(-c3c(CC(=O)NC4CCCCC4)ccc(Cl)c3F)c2-c2ccc(F)c(Cl)c2)o1	–	1.4 µM	28 µM
CC(C)(C)NC(=O)Cc1ccc(Cl)c(F)c1-n1c(C2CCCCC2)nc(-c2nnc(N)o2)c1-c1ccc(F)c(Cl)c1	–	0.5 µM	23 µM
